SMILES strings stand for the structures.

The target in the test is T1, DCAF1 WD40 domain (residues 1077-1390) (Homo sapiens, UniProt Q9Y4B6).
T1 construct: DCAF1 WD40 domain (residues 1077-1390)
T1 sequence (Q9Y4B6 1077-1390): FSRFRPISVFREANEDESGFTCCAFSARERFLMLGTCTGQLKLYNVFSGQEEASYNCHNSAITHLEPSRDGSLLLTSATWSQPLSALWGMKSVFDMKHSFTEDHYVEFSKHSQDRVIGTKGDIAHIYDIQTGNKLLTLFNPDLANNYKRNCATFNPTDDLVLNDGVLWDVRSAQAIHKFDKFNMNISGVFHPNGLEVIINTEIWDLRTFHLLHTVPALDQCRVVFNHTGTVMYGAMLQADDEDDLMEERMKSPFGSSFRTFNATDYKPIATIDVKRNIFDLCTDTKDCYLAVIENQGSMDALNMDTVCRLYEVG
Put plainly: DCAF1 binding assay by SPR (Biacore 8K+), DCAF1-3 KD. The settings on record: 25 °C, read-out: DCAF1-3 SPR (KD).
As to `C[C@@]1(Nc2cc(N3CCOCC3)ccn2)CCCN(c2cccc(F)c2)C1` [I-500], the Kd was above 200 µM.
On to `NC(=O)[C@H]1CCN(C(=O)c2c[nH]nc2-c2ccccc2F)[C@@H]1c1cccc(Cl)c1` [I-203], for which the Kd is above 200 µM.
In the case of `CNC(=O)C[C@H](NC(=O)c1c[nH]c(C(=O)COCCOCCOCCOCCOCCNC(=O)C[C@@H]2N=C(c3ccc(Cl)cc3)c3c(sc(C)c3C)-n3c(C)nnc32)c1-c1c(F)ccc(F)c1C)c1cccc(Cl)c1` [I-910], the Kd is below 10 µM.
For the compound `Cc1c(F)ccc(F)c1-c1cn(C)cc1C(=O)N[C@@H](CC(N)=O)c1cccc(Cl)c1` [I-924], the Kd was below 10 µM.
In the case of `Cc1c(F)ccc(F)c1-c1c(C(=O)N[C@@H](CC(N)=O)c2cccc(Cl)c2)c[nH]c1C(=O)c1cccc(C2CCCCC2)c1` [I-732], the Kd was below 10 µM.
Regarding `Fc1cccc(N2CCCC(Nc3nccc(N4CCOCC4)n3)C2)c1` (stereo not drawn) [I-22], the Kd is above 200 µM.
For the compound `NCCCCCCCCCCCC1CCN(c2ccnc(N3CC[C@@H]4[C@H]3CCCN4c3cccc(F)c3)c2)CC1` [I-721], the Kd is below 10 µM.
Take `NC(=O)C[C@H](NC(=O)c1c[nH]c(Nc2ccccc2)c1-c1c(F)cccc1F)c1cccc(Cl)c1` [I-629]: the Kd was below 10 µM.
With `Fc1cccc(N2CCC[C@@H](Nc3cc(N4CC5(CCC5)C4)ccn3)C2)c1` [I-577] the figure was 10 to 100 µM; with `O=C1C[C@H]([C@@H](NC(=O)c2cn[nH]c2-c2ccccc2F)c2cccc(Cl)c2)CN1` [I-559], 100 to 200 µM.
Take `OCCc1ccc(N2CCC[C@@H](Nc3cc(N4CCOCC4)ccn3)C2)cc1` [I-860]: the Kd was above 200 µM.
As for `O=C(N[C@@H](CC(=O)N1CCNCC1)c1cccc(Cl)c1)c1cn[nH]c1-c1ccccc1F` [I-787], the figure is below 10 µM; as for `Fc1cccc(N2CC[C@@H]3CCCc4cnc(N5CCOCC5)cc4N[C@H]3C2)c1` [I-363], above 200 µM.
With `CN(CCN)C(=O)C[C@H](NC(=O)c1cn[nH]c1-c1ccccc1F)c1cccc(Cl)c1` [I-807] the figure was below 10 µM; with `Oc1cc(N[C@@H]2CCCN(c3cccc(F)c3)C2)cc(N2CCOCC2)c1` [I-564], 10 to 100 µM.
With `NC(=O)C[C@H](NC(=O)c1cc[nH]c1-c1ccccc1F)c1cccc(Cl)c1` [I-89] the figure was 10 to 100 µM.
Turning to `C=CC(=O)NCCCCN1CCN(c2ccnc(N[C@@H]3CCCN(c4cccc(F)c4)C3)c2)CC1` [I-633], the Kd lay within 10 to 100 µM.
`COCCOCCC1CN(c2cc(N3CCOCC3)ccn2)[C@@H]2CCCN(c3cccc(F)c3)[C@H]12` (stereo partly drawn) [I-828]: the Kd was above 200 µM.
Consider `O=C(O)c1cc2c(N3CCC[C@@H](Nc4cc(N5CCOCC5)ccn4)C3)cccc2s1` [I-855], for which the Kd was above 200 µM.
Turning to `OC[C@H]1CC[C@H](Nc2cc(N3CCCCC3)ccn2)CC1` [I-847], the Kd was above 200 µM.
In the case of `C[C@@H]1CCCCN1c1ccnc(N[C@@H]2CCCN(c3cccc(F)c3)C2)c1` [I-568], the Kd was below 10 µM.
For `Cc1sc2c(c1C)C(c1ccc(Cl)cc1)=N[C@@H](CC(=O)NCCOCCOCCOCCOCCOCCOCCn1cc(C(=O)N[C@@H](CC(N)=O)c3cccc(Cl)c3)c(-c3ccccc3F)n1)c1nnc(C)n1-2` [I-889], the Kd is above 200 µM.
Take `Cc1c(F)ccc(F)c1-c1[nH]ncc1C(=O)N[C@@H](CC(N)=O)c1cccc(Cl)c1` [I-601]: the Kd is below 10 µM.
For `NCC1CC[C@@H](Nc2cc(N3CCCCC3)ccn2)CN1c1cccc(F)c1` (stereo partly drawn) [I-1019], the Kd lay within 10 to 100 µM.
For `Cc1ccc(Cl)cc1[C@@H](CC(N)=O)NC(=O)c1cn[nH]c1-c1ccccc1F` [I-584], the Kd fell in the range of 10 to 100 µM.
On to `Clc1cccc(N2CCC[C@H]3[C@@H]2CCN3c2cc(N3CC4CC(C4)C3)ccn2)c1` [I-717], for which the Kd is below 10 µM.
With `NC(=O)C[C@H](NC(=O)c1c[nH]nc1-c1ccccc1O)c1cccc(Cl)c1` [I-334] the figure was 10 to 100 µM.
Turning to `COCCN1CCN(c2ccnc(NC3CCCN(c4cccc(F)c4)C3)n2)CC1` (stereo not drawn) [I-28], the Kd fell in the range of 10 to 100 µM.
Turning to `Fc1cccc(N2C[C@H](Nc3cc(N4CCOCC4)ncn3)C3CC[C@H]2C3)c1` [I-383], the Kd was above 200 µM.
Regarding `COCCC(=O)c1[nH]cc(C(=O)N[C@@H](CC(N)=O)c2cccc(Cl)c2)c1-c1ccccc1F` [I-524], the Kd was below 10 µM.
As to `CCc1cccc([C@H](CC(N)=O)NC(=O)c2cn[nH]c2-c2ccccc2F)c1` [I-638], the Kd was above 200 µM.
As for `NC(=O)C[C@H](NC(=O)c1cn[nH]c1-c1cccc(O)c1)c1cccc(Cl)c1` [I-332], the Kd is 10 to 100 µM.
As to `C[C@H]1CC[C@@H](c2[nH]ncc2C(=O)N[C@@H](CC(N)=O)c2cccc(Cl)c2)CC1` [I-742], the Kd is below 10 µM.
With `c1cc(N2CCOCC2)cc(N[C@@H]2CCCN(c3ccc(OCCN4CCCC4)nc3)C2)n1` [I-677] the figure was 10 to 100 µM; with `CNC(=O)C[C@H](NC(=O)c1cn[nH]c1-c1ccccc1F)c1cccc(Cl)c1` [I-79], 10 to 100 µM.
As for `Cc1c(F)ccc(F)c1-c1c(C(=O)N[C@@H](CC(=O)N2CCNCC2)c2cccc(Cl)c2)c[nH]c1C(=O)c1ccccc1` [I-851], the Kd was below 10 µM.
As for `O=C(O)CN(c1cc(N2CCOCC2)ccn1)[C@@H]1CCCN(c2cccc(F)c2)C1` [I-286], the figure is above 200 µM; as for `C=CC(=O)Nc1ccc(-c2[nH]ncc2C(=O)N[C@H](CC(N)=O)c2cccc(Cl)c2)cc1` [I-536], above 200 µM; as for `NC(=O)C[C@H](NC(=O)c1c[nH]c(C(=O)c2ccccc2)c1-c1c(F)cc(Cl)cc1F)c1cccc(Cl)c1` [I-946], below 10 µM.
Regarding `C[C@@H]1[C@H](O)CCCN1c1ccnc(N2CC[C@@H]3[C@H]2CCCN3c2cccc(F)c2)c1` [I-832], the Kd is below 10 µM.
Turning to `Fc1cccc(N2CC[C@@H]3CN(c4cc(N5CCCCC5)ccn4)C[C@@H]32)c1` [I-667], the Kd was 10 to 100 µM.
`Oc1ccc(N2CCC[C@@H]3[C@H]2CCN3c2cc(N3CC4CC(C4)C3)ccn2)cc1` [I-709]: the Kd was 10 to 100 µM.
As for `Cc1nc(Nc2ncc(C(=O)Nc3c(C)cccc3Cl)s2)cc(N2CCC(OC3CCN(CCCCCCCC(=O)N4CCN(c5ccc6c(NCCN)nc(C7(c8ccc(Cl)cc8)CCCCC7)nc6c5)CC4)CC3)CC2)n1` [I-1053], the figure is below 10 µM; as for `Fc1cccc(N2CCC[C@H]3[C@@H]2CCN3c2cc(N3CCCCC3)ccn2)c1` [I-580], 100 to 200 µM.
With `c1cc2ccc(N3CCC[C@@H](Nc4cncc(N5CCOCC5)c4)C3)cc2cn1` [I-366] the figure was below 10 µM; with `Fc1cccc(N2CCC[C@H]3[C@@H]2CCN3c2cc(N3CCCCCC3)ccn2)c1` [I-636], below 10 µM; with `Cc1sc2c(c1C)C(c1ccc(Cl)cc1)=N[C@@H](CC(=O)NCCOCCOCCOCCOCCn1cc(C(=O)N[C@@H](CC(N)=O)c3cccc(Cl)c3)c(-c3ccccc3F)n1)c1nnc(C)n1-2` [I-490], 10 to 100 µM.
Turning to `Clc1nc2c(c(N3CCC[C@@H](Nc4cc(N5CCOCC5)ccn4)C3)n1)CCNC2` [I-681], the Kd lay in the range of 10 to 100 µM.
As for `Fc1cccc(N2CCC[C@@H](N3CCCc4c(N5CCOCC5)ccnc43)C2)c1` [I-197], the Kd is above 200 µM.
Regarding `NC(=O)C[C@H](NC(=O)c1cnn(CC2CC2)c1-c1ccccc1F)c1cccc(Cl)c1` [I-133], the Kd lay within 10 to 100 µM.
On to `CC(=O)Nc1cccnc1N1CCC[C@@H](Nc2cc(N3CCOCC3)ccn2)C1` [I-430], for which the Kd was above 200 µM.
In the case of `CCCN1CCN(c2cc(N[C@@H]3CCCN(c4cccc(F)c4)C3)ncn2)CC1` [I-376], the Kd is above 200 µM.
Consider `NC(=O)C[C@H](NC(=O)c1nc(N)sc1-c1ccccc1F)c1cccc(Cl)c1` [I-565], for which the Kd was in the range of 100 to 200 µM.
`Cc1sc2c(c1C)C(c1ccc(Cl)cc1)=N[C@@H](CC(=O)NCCOCCOCCOCCOCCOCCOCCOCCn1cc(C(=O)N[C@@H](CC(N)=O)c3cccc(Cl)c3)c(-c3ccccc3F)n1)c1nnc(C)n1-2` [I-888]: the Kd was above 200 µM.
For the compound `Fc1cccc(N2CCCC[C@@H](Nc3cc(N4CCOCC4)ncn3)C2)c1` [I-219], the Kd was above 200 µM.
With `Cc1sc2c(c1C)C(c1ccc(Cl)cc1)=N[C@@H](CC(=O)NCCCCCCCCCCCCC(=O)c1[nH]cc(C(=O)C[C@@H](CC(N)=O)c3cccc(Cl)c3)c1-c1ccccc1F)c1nnc(C)n1-2` [I-892], the Kd is above 200 µM.
As for `NC(=O)C[C@H](NC(=O)c1n[nH]c2ccccc12)c1cccc(Cl)c1` [I-297], the figure is above 200 µM.
Consider `O=c1[nH]cc(C2CCOCC2)cc1N[C@@H]1CCCN(c2cccc(F)c2)C1` [I-646], for which the Kd fell in the range of 10 to 100 µM.
Take `Fc1cccc(N2CCC[C@@H](N(Cc3ccccc3)c3cc(N4CCOCC4)ncn3)C2)c1` [I-387]: the Kd is above 200 µM.
On to `NC(=O)C[C@](CC1CC1)(NC(=O)c1c[nH]nc1-c1ccccc1F)c1cccc(Cl)c1` [I-255], for which the Kd was above 200 µM.
With `Nc1cc(N2CCOCC2)cc(N[C@@H]2CCCN(c3cccc(F)c3)C2)n1` [I-369], the Kd was above 200 µM.
Regarding `C=CC(=O)N[C@H]1CCN(c2ccnc(N[C@@H]3CCCN(c4cccc(F)c4)C3)c2)C1` [I-478], the Kd is above 200 µM.
For the compound `Cc1cccc(C(CC(N)=O)NC(=O)c2cn[nH]c2-c2ccccc2F)c1` (stereo not drawn) [I-331], the Kd is above 200 µM.
For `Fc1cccc(N2CCC[C@@H](n3cnc4c(N5CCOCC5)ncnc43)C2)c1` [I-51], the Kd was above 200 µM.
Turning to `O=C(O)C1C(Nc2cc(N3CCOCC3)ccn2)CCCN1c1cccc(F)c1` (stereo not drawn) [I-628], the Kd was 10 to 100 µM.
Consider `Fc1cccc(N2CCC[C@@H](N(c3cccnc3)c3cc(N4CCOCC4)ccn3)C2)c1` [I-306], for which the Kd was above 200 µM.
With `CC1CCN(c2ccnc(N[C@@H]3CCCN(c4cccc(F)c4)C3)c2)CC1` [I-571] the figure was 10 to 100 µM; with `O[C@H]1CCCN(c2ccnc(N3CC[C@H]4[C@@H]3CCCN4c3cccc(F)c3)c2)C1` [I-797], 10 to 100 µM; with `NC(=O)C[C@@]1(NC(=O)c2c[nH]nc2-c2ccccc2F)CCc2cc(Cl)ccc21` [I-242], above 200 µM.
With `Cc1c(F)ccc(F)c1-c1c(C(=O)N[C@@H](CC(N)=O)c2cccc(Cl)c2)cn(C)c1C(=O)c1ccc(OCCOCCOCCN)cc1` [I-1034] the figure was below 10 µM; with `O[C@@H]1C[C@@H](Nc2cc(N3CCOCC3)ccn2)CN(c2cccc(F)c2)C1` [I-274], 10 to 100 µM; with `Fc1cccc(N2CCNC(Cc3cc(N4CCCCC4)ccn3)C2)c1` (stereo not drawn) [I-743], above 200 µM.

The values are drawn from patent US20260373266A1, “PROTEIN DEGRADERS AND USES THEREOF” (KYMERA THERAPEUTICS, INC., priority 2022, published 2026).
